Measured values taken from patent US9757375B2, “Compounds that inhibit human DNA ligases and methods of treating cancer” (University of Maryland, Baltimore, priority 2007, dated 2017).
Read-outs that look alike come from different tables or passages of the source.

Tests used:
HeLa cell extract = assay: Cell extract assay of nonhomologous end-joining (1 kb cohesive-ended fragment); assay type: biochemical, human; settings: 100 μmol/L (also 25 μM in the source), FIG. 4C
Experimental: Extracts were prepared from human cervical cancer HeLa cells as described previously (27, 31). For base excision repair (BER) assays, the extraction buffer contained 100 mmol/L of KCl, whereas for nonhomologous end-joining (NHEJ) assays, extraction buffer contained 400 mmol/L of KCl. Where indicated, DNA ligases were immunodepleted from the extracts as described (32) using protein A or G Sepharose beads (GE Healthcare) and anti-Lig1, anti-LigIII (GeneTex), or anti-LigIV (ABCAM) antibodies. Depletion was confirmed by immunoblotting.
To assay NHEJ (24), a 1 kb end-labeled BamHI fragment (0.1 pmol; (33)). and 20 μg of extract were incubated in ligation buffer (final volume, 20 μL), for 120 min at 25° C. either in the presence or absence of ligase inhibitors (100 μmol/L). DNA fragments were resolved by separation through a 0.8% agarose gel. Labeled DNA fragments were detected in the dried gel by phosphorImager analysis (Molecular Dynamics).
Linear DNA molecules with short complementary single strand overhangs are repaired by non-homologous end joining that is completed by DNA ligase IV (27). A HeLa extract was incubated with a labeled linear cohesive-ended 1 kb fragment with cohesive ends repair in the absence or presence of Compounds 67, 82 and 189 (25 μM).). Lane 7, DNA ligase I was immunodepleted from the extract prior to the assay. […], DNA ligase III was immunodepleted from the extract prior to the assay. […], DNA ligase IV was immunodepleted from the extract prior to the assay. After separation by native agarose gel electrophoresis, the linear DNA substrate, re-circularized substrate and dimers trimers etc of the 1 kb substrate were detected by phosphorimaging (27). […]

MCF10A cells = assay: Screen for potentiation of DNA damaging agents (MMS, camptothecin, cis-platinum, 3 aminobenzamide, ionizing radiation); assay type: cell-based, human; settings: for IC50 ratios of non- and 3-AB treated cells MCF10A: compound alone vs combination with 3-AB (2 mM); for IC50 ratios of non- and 3-AB treated cells MCF10A / MMS: Ratios of IC50 MCF10A: 1 = no sensitization; for Radiosensitizers: IC50 ratios MCF10A: ionizing radiation; for MMS: Ratios of IC50 MCF10A: compound alone vs combination with MMS (100 μM); for % growth inhibition MCF10A [2 Gy] 5-15 uM: with 2 Gy ionizing radiation, tick mark only
Summary of the method: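 HCT116 colon cancer and MCF10A breast epithelial cells received compounds at 15 μM or 50 μM one day after plating; for ionizing radiation, cells were pre-incubated 1 h with 50 μM compound before 2 Gy. After 3 days, cells were lysed with Igepal CA-630 plus SYBR green, and DNA fluorescence served as the proliferation read-out.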

MCF7 cells = assay: Colony forming (survival) assay; assay type: cell-based, human
Experimental: For survival assays, cells were plated in 6 well plates and grown either in the absence or presence of ligase inhibitors. Where indicated, either MMS (0-50 μM) was added to the medium or the cells were irradiated in a Cs-137 irradiator (0-2.5 Gy). After two weeks, colonies were stained with crystal violet (Sigma) and then counted.
To confirm that the DNA ligase inhibitors directly kill cells and potentiate cell killing by DNA damaging agents, we performed colony forming assays.
Different concentrations of Compound 184 were added to asynchronous subconfluent populations of HCT116, MCF7 and MCF10A cells. Colonies were counted after two weeks. (FIG. 6A).
Different concentrations of Compound 67 were added to asynchronous subconfluent populations of HCT116, MCF7 and MCF10A cells. After 1 hour, cultures were irradiated with 2 gray of ionizing radiation. Different concentrations of Compound 67 were added to asynchronous subconfluent populations of HCT116 and MCF10A cells in the absence or presence of MMS (50 μM). Colonies were counted after two weeks. (FIG. 6D).

HCT116 and MCF10A cells = assay: Cell proliferation screen, result stated for one or both cell lines; assay type: cell-based; settings: Homo sapiens, read-out: IC50 of inhibition of proliferation
HCT116 cells = assay: MTT cell growth assay; assay type: cell-based, human; settings: for IC50: Homo sapiens
Summary of the method: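 HCT116 cells (1200 per well) adhered overnight, then were exposed to serially diluted compounds for 5 days. MTT was added for 4 h, formazan dissolved in isopropanol and absorbance read at 560 nm as the growth measure.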

[1] = HCT-116, cell growth, compound alone, read-out: IC50 (μM) HCT116
[2] = HCT-116, sections 'high concentrations (~50 μM)' and 'active in vitro that decreased cell growth', same figures given in μM elsewhere in Table 6, read-out: IC50 HCT116 (head without unit)

O=c1[nH]ncc(N/N=C\c2ccc(O)c([N+](=O)[O-])c2)c1Cl [Compound 82]
joining of linear DNA molecules (non-homologous end joining) (HeLa cell extract): had no effect

O=C(O)CSc1cc(Cl)c2nonc2c1[N+](=O)[O-] [Compound 64]
IC50 ratios of non- and 3-AB treated cells MCF10A (MCF10A cells): 2 | Radiosensitizers: IC50 ratios MCF10A (MCF10A cells): 1.2

Cc1c(Br)cc(NCC(=O)N/N=C\c2cc([N+](=O)[O-])ccc2O)cc1Br [Compound 67]
potentiation of killing by ionizing radiation (MCF7 cells; MCF7, 2 gray, FIG. 6D): potentiates | potentiation of killing by MMS (MCF7 cells; MCF7, MMS, FIG. 6D): potentiates | IC50 (HCT116 and MCF10A cells): < 20 µM | IC50 ratios of non- and 3-AB treated cells MCF10A (MCF10A cells): 1.7 | MMS: Ratios of IC50 MCF10A (MCF10A cells): 1.2 | % growth inhibition MCF10A [2 Gy] 5-15 uM (MCF10A cells): ✓ | joining of linear DNA molecules (non-homologous end joining) (HeLa cell extract): had no effect | IC50 (HCT116 cells; [1]): 8 µM | IC50 (HCT116 cells; [2]): 8 µM

O=C(Cn1cnc([N+](=O)[O-])n1)N/N=C/c1ccc(O)cc1O [Compound 151]
IC50 (HCT116 and MCF10A cells): < 20 µM | MMS: Ratios of IC50 MCF10A (MCF10A cells): 1.8 | Radiosensitizers: IC50 ratios MCF10A (MCF10A cells): 1 | % growth inhibition MCF10A [2 Gy] 5-15 uM (MCF10A cells): ✓ | IC50 (HCT116 cells; [1]): 22 µM | IC50 (HCT116 cells; [2]): 22 µM

O=C1Nc2ccccc2Oc2cc([N+](=O)[O-])cc([N+](=O)[O-])c21 [Compound 180]
IC50 (HCT116 and MCF10A cells): < 20 µM | MMS: Ratios of IC50 MCF10A (MCF10A cells): 1 | IC50 (HCT116 cells; HCT-116, read-out: IC50 HCT116 (head without unit)): 3 µM | IC50 (HCT116 cells; [1]): 12 µM

CS(=O)(=O)NNC(=O)C(=O)NNc1ccccc1 [Compound 184]
cell killing (colony formation) (MCF7 cells; MCF7, compound alone, compared with MCF10A, FIG. 6A): more effective at killing | inhibition of cell proliferation of HCT116 at 50 μM (MTT) (HCT116 cells; 50 μM, numbers printed under HCT116 in r92-r106: 16, 64, 124, 130, 165, 184 (30%), 195, 197, 198, 212): 184 (30%)

O=C(c1ccc(O)cc1)c1ccccc1O [Compound 200]
IC50 ratios of non- and 3-AB treated cells MCF10A (MCF10A cells): ID (1.2) | MMS: Ratios of IC50 MCF10A (MCF10A cells): ID (1) | IC50 (HCT116 cells; [1]): ~10 µM | IC50 (HCT116 cells; [2]): 10 to 150 µM

Nc1nc(S)nc(O)c1/N=C/c1ccccc1 [Compound 189]
joining of linear DNA molecules (non-homologous end joining) (HeLa cell extract): reduced joining of the linear DNA molecules
